Where two headings read alike, the source gives them in different places.
Columns and labels:
[1] = test system: hepatocytes from male rats (Sprague Dawley); assay: In vitro metabolism study in rat hepatocytes in suspension, GC-MS; conditions: for Residual concentration: male, Sprague Dawley, rat, 4 h, 100 μM
Method: In order to study in vitro metabolism in rat hepatocytes, Lilial™ and compounds of the present invention may be incubated in the presence of rat hepatocytes in suspension. Reduction in the concentration of Lilial™ and the compounds of the present invention and formation of any of the corresponding benzoic acid derivatives may be analysed by GC-MS.
Cryopreserved hepatocytes from male rats (Sprague Dawley; Lifetechnologies) were defrozen, washed in Cyropreserved Hepatocytes Recovery Medium (CHRM; Lifetechnologies) and suspended in Williams E Medium (WEM; Lifetechnologies). Lilial™, or the compounds of the present invention (final concentration: 100 μM) were added to the cells (1×10^6 viable cells/ml) and suspensions were incubated up to 4 hours at 37° C. on a shaker in duplicate. Metabolism of testosterone was monitored as positive control. Decrease of the test compounds and formation of the corresponding benzoic acid derivative was determined by GC-MS analysis of methyl esters formed after derivatisation with trimethylsilyl diazomethane (Sigma-Aldrich) in methanol. The test compounds react with diazomethane yielding a methyl ketone which was used for the quantification of Lilial™ and the compound of formula (I). Metabolism was stopped with ice cold 1 M HCl, samples were extracted with tert-butyl methyl ether (MTBE) and analysed by GC-MS. Incubations containing testosterone as control were also stopped with ice cold 1 M HCl, centrifuged to separate the cells, filtrated and the decrease of testosterone analysed by LC-MS.

guinea-pigs = conditions: guinea pig, in vivo; cited from earlier work
mice = conditions: mouse, in vivo; cited from earlier work
[2] = test system: reproductive organs of dogs; conditions: dog, in vivo; cited from earlier work
[3] = test system: reproductive organs of male rats; conditions: rat, in vivo; cited from earlier work
primates = conditions: cited from earlier work

| Compound | Residual concentration [1] [µM] | other results |
| --- | --- | --- |
| Cc1ccc(CCCC(C)C)cc1CCC=O | 2.4 |  |
| C[C@]12CC[C@H]3[C@@H](CCC4=CC(=O)CC[C@@]43C)[C@@H]1CC[C@@H]2O [testosterone] |  | Decrease / metabolism of compound in rat hepatocytes ([1]; rat hepatocytes, up to 4 hours at 37° C.): rapid decrease |
| Cc1cc(CCCC(C)C)ccc1CCC=O | 0 |  |
| CC(C=O)Cc1ccc(C(C)(C)C)cc1 (centres unmarked) [Lilial™, 3-(4-tert-butylphenyl)-2-methylpropanal] | 0 | Toxic effects (guinea-pigs): No effects; Toxic effects (mice): No effects; Toxic effects on reproductive organs [2]: toxic effects on the reproductive organs; Decrease / metabolism of compound in rat hepatocytes [1]: metabolised rapidly; Toxic effects on reproductive organs [3]: toxic effects on the reproductive organs; Toxic effects (primates): No effects |
| Cc1cc(CC(C)C)ccc1CCC=O | 0 |  |
| Cc1ccc(CC(C)C)cc1CC(C)C=O (centres unmarked) | 0 |  |
| Cc1cc(CC(C)C)cc(C)c1CCC=O | 0 |  |
| Cc1cc(CCC(C)C)ccc1CCC=O | 0 |  |
